The test system of data set [1] is K562. In words: Cytotoxicity against human K562 cells after 96 hrs by MTT assay. To be noted: K562, 96 h. It counts as functional, cell-based. For orientation: Tetrazolium assays rely on reduction of a dye to a coloured formazan, in cell work by metabolically active cells.
Data set [2] can be described thus: Cytotoxicity against human NYH cells after 3 weeks by clonogenic survival assay. It counts as functional. To be noted: 504 h, read-out: LD50 (the source's name).
The subject of data set [3] is A2780. Description: Cytotoxicity against human A2780 cells. It counts as functional, cell-based.
The target in data set [4] is T1, Nicotinamide phosphoribosyltransferase (Homo sapiens, UniProt P43490). Description: Inhibition of NAMPT (unknown origin).
T1 sequence (P43490 whole entry): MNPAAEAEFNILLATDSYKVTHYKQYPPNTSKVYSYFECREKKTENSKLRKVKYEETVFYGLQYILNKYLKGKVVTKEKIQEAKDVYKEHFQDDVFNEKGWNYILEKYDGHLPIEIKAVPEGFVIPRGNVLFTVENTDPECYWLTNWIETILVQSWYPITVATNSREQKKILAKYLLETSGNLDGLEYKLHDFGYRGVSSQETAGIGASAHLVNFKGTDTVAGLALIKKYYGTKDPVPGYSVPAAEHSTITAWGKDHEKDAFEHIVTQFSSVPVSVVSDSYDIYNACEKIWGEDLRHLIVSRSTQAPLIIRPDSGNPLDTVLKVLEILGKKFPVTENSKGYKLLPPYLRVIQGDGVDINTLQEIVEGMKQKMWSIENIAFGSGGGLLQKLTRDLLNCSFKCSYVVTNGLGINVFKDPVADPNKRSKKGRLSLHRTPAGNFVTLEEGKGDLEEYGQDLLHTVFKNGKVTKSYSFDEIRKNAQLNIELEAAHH
Data set [5] relates to HCT-116. Description: Cytotoxicity against human HCT116 cells. It counts as functional, cell-based.
Data set [6] can be described thus: Cytotoxicity against human U87 cells by MTT assay. It counts as functional, cell-based, U-87MG ATCC. To be noted: U-87 MG.
The subject of data set [7] is A2780. Description: Cytotoxicity against human A2780 cells after 72 hrs by SRB assay. It counts as functional, cell-based. As to conditions: A2780, 72 h.
Data set [8] addresses T1, Nicotinamide phosphoribosyltransferase. In words: Inhibition of NAMPT in human U87 cells. It counts as cell-based, U-87MG ATCC.
Data set [9] in a line: Solubility of the compound in water. It counts as physicochemical.
The nature of data set [10]: Cytotoxicity against human SH-SY5Y cells […] after 48 hrs by MTT assay. It counts as functional, cell-based.
The nature of data set [11]: Half life in human. It counts as ADME, organism-based. To be noted: in vivo.
In data set [12] the test system is WIL2. In words: Cytotoxicity against human W1L2 cells. It counts as functional, cell-based.
Data set [13] addresses T1, Nicotinamide phosphoribosyltransferase. In words: Binding affinity to NAMPT (unknown origin).
Data set [14] shares this target. In words: Inhibition of recombinant his-tagged NAMPT (unknown origin) expressed in Escherichia coli after 30 mins.
Data set [15] concerns A2780. Description: Cytotoxicity against human A2780 cells after 72 hrs by WST-1 assay. It counts as functional, cell-based. To be noted: A2780, 72 h.

Structures are written as SMILES. A value given as a limit tells only on which side of the number the result lay.

Consider 19 compounds from ChEMBL document CHEMBL2417540, “Medicinal chemistry of nicotinamide phosphoribosyltransferase (NAMPT) inhibitors” (J Med Chem, 2013).

As usually defined, the IC50 is the concentration needed to halve the response being measured. Broadly, the EC50 is the midpoint of the concentration-response curve. The low end stands for a more potent agent, the high end for a less potent agent. By solubility is commonly meant the dissolved amount per volume that the medium holds. A higher solubility goes with a readily soluble substance. As a reminder, the half-life is the time needed for the level to fall by half in the phase considered. A low value points to rapid decline. The term Kd denotes the free concentration of one partner at which half of the binding sites on the other are occupied at equilibrium, for simple one-to-one binding. Lower therefore signals a tighter complex.

Compound `O=C(/C=C/c1cccnc1)NCCCCC1CCN(C(=O)c2ccccc2)CC1` [DAPORINAD] registered a half-maximal inhibitory concentration (IC50) in data set [1] of 7.2 nM. Besides, the CC50 in data set [2] was 1.5 nM.
Take `O=C(NCc1cccnc1)Nc1ccc(S(=O)(=O)c2ccccc2OC(F)(F)F)cc1`: in data set [3], the EC50 worked out at 7 nM. In addition, it took 1.2 nM to reach half-maximal inhibition in data set [4] (IC50).
The compound `CC(C)=CCN(Cc1cc2c(=O)n(C)nnc2cc1Cl)c1ccc(C(=O)NCc2cccnc2)cc1` yielded an EC50 in data set [5] of 3 nM.
With `O=C1c2cc(S(=O)(=O)O)ccc2-c2ccc(S(=O)(=O)O)cc21`, it took 335000 nM to reach a half-maximal effect in data set [6] (EC50).
`N#C/N=C(\NCc1ccc(S(=O)(=O)c2cccc(Cl)c2)cc1)Nc1ccncc1` yielded a half-maximal effective concentration (EC50) in data set [7] of 4.1 nM.
`O=C(NCCCCCCS(=O)(=O)N(OCCN1CCOCC1)C1CCCCC1)NCc1cccnc1` showed a half-inhibitory concentration (IC50) in [3] of 0.89 nM.
Compound `Nc1c(-c2ccc3ccccc3n2)c2ccc([N+](=O)[O-])cc2c(=O)n1Cc1ccccc1` gave an IC50 in data set [8] of under 5000 nM. In data set [6], this compound came in with an EC50 of 325000 nM.
With `COCCOCCOCCOCCOC(=O)OC[n+]1ccc(N/C(=N/C#N)NCCCCCCOc2ccc(Cl)cc2)cc1.[Cl-]` [TEGLARINAD CHLORIDE], the solubility in [9] is at most 97 mg/mL.
`O=C(/C=C/c1cccnc1)NCCCCCCS(=O)(=O)N(CCN1CCOCC1)OCC1CCCCC1` showed a concentration for half-maximal inhibition (IC50) in data set [3] of 0.16 nM.
The compound `C#CCN(Cc1cc2c(=O)n(C)c(CN3CCN(CCCN)CC3)nc2cc1Cl)c1ccc(C(=O)NCc2cccnc2)cc1` gave a half-maximal effective concentration (EC50) in [5] of 18 nM.
For the compound `O=C(c1ccccc1)N1CCC(CCCCn2cc(/C=C/c3cccnc3)nn2)CC1`, the concentration for half-maximal inhibition (IC50) in data set [10] is 3000 nM.
Regarding `N#C/N=C(\NCCCCCCC(=O)N(Cc1ccccc1)OC1CCCCC1)Nc1ccncc1`, the CC50 in [2] stood at 0.02 nM.
The compound `N#CN=C(NCCCCCCOc1ccc(Cl)cc1)Nc1ccncc1` [CHS-828] showed a half-life in data set [11] of 3 h. In addition, the CC50 in data set [2] came out at 1.7 nM.
In the case of `C#CCN(Cc1cc2c(=O)n(C)c(CN3CCN(C)CC3)nc2cc1Br)c1ccc(C(=O)NCc2cccnc2)cc1`, in data set [12], the 50% effective concentration (EC50) is 0.49 nM. This compound also had a concentration for half-maximal inhibition (IC50) in data set [4] of 0.23 nM.
For the compound `Cc1ncsc1C(=O)N1CCC(CCCCNC(=O)c2cc3cnccc3[nH]2)CC1`, the concentration for a half-maximal effect (EC50) in data set [7] was 1 nM.
Regarding `O=C(NCCCCC1CCN(C(=O)c2ccccc2)CC1)c1cc2ccncc2s1`, in [7], the concentration giving a half-maximal response (EC50) stood at 1.2 nM.
Regarding `O=C(/C=C/c1ccc[n+]([C@@H]2O[C@H](CO)[C@@H](O)[C@H]2O)c1)NCCCCC1CCN(C(=O)c2ccccc2)CC1`, the dissociation constant (Kd) in data set [13] came out at 45000 nM.
For `O=C(/C=C/c1cccnc1)Nc1ccc(S(=O)(=O)c2ccccc2)cc1`, the IC50 in data set [14] was determined as 3 nM. In data set [7], this compound yielded a concentration giving a half-maximal response (EC50) of 243 nM.
Regarding `O=c1c(NCCCCCCS(=O)(=O)N(OCCN2CCOCC2)C2CCCCC2)c(Nc2ccncc2)c1=O`, the half-maximal inhibitory concentration (IC50) in data set [15] is 0.03 nM.
